Results on four compounds are retold here after US8871802B2, “Naphthoquinones for disease therapies” (Zhoushan HaiZhongZhou Xinsheng Pharmaceuticals Co., Ltd., priority 2010, dated 2014).

What all share (format): cell-based
One assay relates to SK-MEL-28. Description: MTT cell viability, SK-MEL-28 (malignant melanoma). The conditions noted are these: Homo sapiens, 48 hour incubation, read-out: Drug concentrations for 50% cell viability (IC50). The method, then:
(§1) In vitro anticancer activity of the compound of Formula I was performed using popular MTT method (Archives of Biochemistry and Biophysics, 1993, 303, […]) against lung cancer, colorectal cancer, cervical cancer, osteosarcoma, leiomyosarcoma, malignant melanoma, pancreas cancer, prostate cancer, nasopharyngeal cancer, glioma, esophageal cancer, stomach cancer, and liver cancer.
(§2) Cell Culture: A549, DLD1, SW480, LOVO, HT-29, Hela, U-20S, MES-SA, SK-MEL-28, Panc-1, DU-145, CNE, U251, Eca-109, MGC80-3, QGY-7701, BEL-7404, PLC/PRF/5, Huh-7, and SGC-7901 cells were maintained in Dulbecco's Modified Eagle Medium (DMEM) (imported from Invitrogen, Carlsbad, Calif., USA) supplemented with 10% fetal bovine serum (FBS) (Si Ji Qing, Hangzhou, China) and 1% penicillin/streptomycin/amphotercin B (imported from Invitrogen, Carlsbad, Calif., USA). Cell Viability Determination: Popular MTT method (Archives of Biochemistry and Biophysics. 1993, 303, 474-482) was used to screen the in vitro effects of the invented drugs. Briefly, 5000 to 10000 cells were inoculated per well in a 96-well plate. After overnight incubation, drug was added to the wells at final concentration of 10 μM, 5 μM, 2.5 μM, 1.25 μM, or 1 μM, 0.75 μM, 0.5 μM and 0.25 μM in complete culture medium. […] The absorbance of each well at 570 nm wavelength was measured by a micro-plate reader after gentle shaking for 20 minutes. […]

A further assay deals with Huh-7. In words: MTT cell viability, Huh-7 (liver cancer). The conditions noted are these: Homo sapiens, 48 hour incubation, read-out: Drug concentrations for 50% cell viability (IC50). The method, then: as §1, §2
The test system of a further assay is DU-145. Description: MTT cell viability, DU-145 (prostate cancer). The conditions noted are these: Homo sapiens, 48 hour incubation, read-out: Drug concentrations for 50% cell viability (IC50). The procedure: as §1
(§3) Cell Culture: A549, DLD1, SW480, LOVO, HT-29, Hela, U-20S, MES-SA, SK-MEL-28, Panc-1, DU-145, CNE, U251, Eca-109, MGC80-3, QGY-7701, BEL-7404, PLC/PRF/5, Huh-7, and SGC-7901 cells were maintained in Dulbecco's Modified Eagle Medium (DMEM) (imported from Invitrogen, Carlsbad, Calif., USA) supplemented with 10% fetal bovine serum (FBS) (Si Ji Qing, Hangzhou, China) and 1% penicillin/streptomycin/amphotercin B (imported from Invitrogen, Carlsbad, Calif., USA). Cell Viability Determination: Popular MTT method (Archives of Biochemistry and Biophysics. 1993, 303, 474-482) was used to screen the in vitro effects of the invented drugs. Briefly, 5000 to 10000 cells were inoculated per well in a 96-well plate. After overnight incubation, drug was added to the wells at final concentration of 10 μM, 5 μM, 2.5 μM, 1.25 μM, or 1 μM, 0.75 μM, 0.5 μM and 0.25 μM in complete culture medium. Each dose level covered 4 equivalent wells. After 48 hour incubation, one tenth volume of 5 mg/mL MTT (thiazolyl blue tetrazolium bromide, Sigma-Aldrich) stock solution was added, and incubation continued for 2 hours. Then medium was removed and 100 μL of isopropanol solution comprising 86% isopropanol, 4% aqueous 1N HCl and 10% aqueous solution of 10% SDS was added. The absorbance of each well at 570 nm wavelength was measured by a micro-plate reader after gentle shaking for 20 minutes. Drug concentrations of 50% cell viability (IC50) were calculated by LOGIT method.

The test system of another assay is U-20S. Description: MTT cell viability, U-20S (osteosarcoma). The conditions noted are these: 48 hour incubation, read-out: Drug concentrations for 50% cell viability (IC50). The method, then: as §1, §3
A further assay deals with HT-29. Description: MTT cell viability, HT-29 (colorectal cancer). To be noted: Homo sapiens, 48 hour incubation, read-out: Drug concentrations for 50% cell viability (IC50). The procedure: as §1, §2
A further assay relates to Panc-1. Description: MTT cell viability, Panc-1 (pancreatic cancer). The conditions noted are these: Homo sapiens, 48 hour incubation, read-out: Drug concentrations for 50% cell viability (IC50). The procedure:
as §1, §2

Another assay deals with Hela. In words: MTT cell viability, Hela (cervical cancer). To be noted: Homo sapiens, 48 hour incubation, read-out: Drug concentrations for 50% cell viability (IC50). The method, then:
as §1, §2

A further assay concerns QGY-7701. Description: MTT cell viability, QGY-7701 (liver cancer). The conditions noted are these: QGY7701, 48 hour incubation, read-out: Drug concentrations for 50% cell viability (IC50). The method, then:
as §1, §2

Another assay relates to MES-SA. In words: MTT cell viability, MES-SA (leiomyosarcoma). The conditions noted are these: Homo sapiens, 48 hour incubation, read-out: Drug concentrations for 50% cell viability (IC50). The procedure:
as §1, §2

The test system of a further assay is U251. In words: MTT cell viability, U251 (glioma). The conditions noted are these: Homo sapiens, U-251, 48 hour incubation, read-out: Drug concentrations for 50% cell viability (IC50). The method, then:
as §1, §2

The subject of a further assay is SW480. In words: MTT cell viability, SW480 (colorectal cancer). The conditions noted are these: Homo sapiens, 48 hour incubation, read-out: Drug concentrations for 50% cell viability (IC50). The method, then: as §1, §2
In a further assay the test system is LOVO. Description: MTT cell viability, LOVO (colorectal cancer). The conditions noted are these: Homo sapiens, 48 hour incubation, read-out: Drug concentrations for 50% cell viability (IC50). The procedure: as §1, §2
For the next assay, the system named is MGC80-3. Description: MTT cell viability, MGC80-3 (stomach cancer). To be noted: Homo sapiens, MGC-803, 48 hour incubation, read-out: Drug concentrations for 50% cell viability (IC50). The method, then:
as §1, §2

For another assay, the system named is PLC/PRF/5. Description: MTT cell viability, PLC/PRF/5 (liver cancer). The conditions noted are these: Homo sapiens, 48 hour incubation, read-out: Drug concentrations for 50% cell viability (IC50). The method, then:
as §1, §2

The test system of another assay is DLD1. Description: MTT cell viability, DLD1 (colorectal cancer). The conditions noted are these: Homo sapiens, DLD-1, 48 hour incubation, read-out: Drug concentrations for 50% cell viability (IC50). The procedure:
as §1, §3

In a further assay the test system is CNE. In words: MTT cell viability, CNE (nasopharyngeal cancer). To be noted: Homo sapiens, 48 hour incubation, read-out: Drug concentrations for 50% cell viability (IC50). The procedure: as §1, §2
The test system of a further assay is SGC-7901. Description: MTT cell viability, SGC-7901 (stomach cancer). The conditions noted are these: Homo sapiens, 48 hour incubation, read-out: Drug concentrations for 50% cell viability (IC50). The procedure: as §1, §2
The next assay relates to A549. In words: MTT cell viability, A549 (lung cancer). To be noted: Homo sapiens, 48 hour incubation, read-out: Drug concentrations for 50% cell viability (IC50). The procedure:
as §1, §3

In a further assay the test system is BEL-7404. Description: MTT cell viability, BEL-7404 (liver cancer). The conditions noted are these: Homo sapiens, 48 hour incubation, read-out: Drug concentrations for 50% cell viability (IC50). The method, then:
as §1, §2

The next assay has as its system Eca-109. In words: MTT cell viability, Eca-109 (esophageal cancer). To be noted: Homo sapiens, 48 hour incubation, read-out: Drug concentrations for 50% cell viability (IC50). The method, then:
as §1, §2

For `CS(=O)(=O)c1cc2c(o1)C(=O)c1ccccc1C2=O` [Compound I, 2-methylsulfonyl-naphtho[2,3-b]furan-4,9-dione], the IC50 with SK-MEL-28 was 220 nM; in the assay with Huh-7, 2500 nM; with DU-145 it was 430 nM; with U-20S, 430 nM; in the assay on HT-29 it was 720 nM; in the assay on Panc-1, 1600 nM. In addition, the IC50 worked out at 1200 nM in the assay with Hela; 3500 nM in the assay with QGY-7701; 1200 nM in the assay on MES-SA; 1000 nM in the assay with U251; 1170 nM in the assay on SW480; 2150 nM in the assay with LOVO. For the same compound, the IC50 in the assay with MGC80-3 is 1200 nM; with PLC/PRF/5, 2500 nM; with DLD1, 290 nM; with CNE, 1360 nM; in the assay on SGC-7901, 2500 nM; in the assay with A549, 2500 nM. Also, the figures for the IC50 with BEL-7404 and in the assay on Eca-109 were 1110 nM and 3450 nM, respectively.

As for `C[S+]([O-])c1cc2c(o1)C(=O)c1ccccc1C2=O` (stereo not drawn) [Compound II, 2-methylsulfinyl-naphtho[2,3-b]furan-4,9-dione], the IC50 came out at 240 nM in the assay on SK-MEL-28; 2500 nM with Huh-7; 500 nM in the assay with DU-145; 390 nM in the assay with U-20S; 780 nM with HT-29; 1250 nM with Panc-1. The IC50 in the assay with Hela stood at 1490 nM; in the assay on QGY-7701, 2500 nM; with MES-SA it was 1000 nM; with U251, 1000 nM; with SW480, 1250 nM; in the assay with LOVO, 4570 nM. Besides, the IC50 came out at 1200 nM in the assay on MGC80-3; 2000 nM with PLC/PRF/5; 280 nM with DLD1; 1250 nM with CNE; 2500 nM in the assay on SGC-7901; 2500 nM in the assay with A549. The results for the IC50 in the assay with BEL-7404 and with Eca-109 were 1100 nM and 3800 nM, respectively.

With `C[S+]([O-])c1oc2c(c1-c1ccccc1)C(=O)c1ccccc1C2=O` (stereo not drawn) [Compound XVI, 2-methylsulfinyl-3-phenyl-naphtho[2,3-b]furan-4,9-dione], the IC50 with DU-145 came out at 3200 nM; in the assay on U-20S, 1250 nM; in the assay on DLD1 it was 1000 nM; with A549 it was 6890 nM.

Take `CS(=O)(=O)c1oc2c(c1-c1ccccc1)C(=O)c1ccccc1C2=O` [Compound XV, 2-methylsulfonyl-3-phenyl-naphtho[2,3-b]furan-4,9-dione]: the IC50 with DU-145 is 5000 nM; in the assay with U-20S, 3610 nM; with DLD1 it was 2510 nM; in the assay with A549, more than 10000 nM.
